{
  "source": "patent US9399028B2",
  "about": "“Treatment of drug resistant cancer” (ROCKEFELLER UNIVERSITY (THE), priority 2012, dated 2016)",
  "tested_on": "B16F10 parental and DTIC-resistant cells",
  "test": "In vitro cell growth in response to dacarbazine",
  "format": "cell-based, mouse",
  "settings": "high-dose DTIC treatment",
  "description": "FIG. 31A-I. Activation of LXRβ Suppresses the In Vivo Growth of Melanoma Lines Resistant to Dacarbazine and Vemurafenib. (FIG. 31A) In vitro cell growth by 2.5×10^4 B16F10 parental cells and in vitro-derived B16F10 DTIC-resistant cells in response to varying doses of dacarbazine (DTIC) added to the cell media for 4 days. n=3. (FIG. 31B-FIG. 31D) Tumor growth by 5×10^4 DTIC-sensitive B16F10 parental cells (FIG. 31B) or 5×10^4 DTIC-resistant B16F10 cells (FIG. 31C) subcutaneously injected into C57BL/6-WT mice. Following tumor growth to 5-10 mm3 in volume, mice were treated with dacarbazine (50 mg/kg, i.p., daily) or a control vehicle and randomly assigned to regular chow or a chow supplemented with GW3965 (100 mg/kg). Final day tumor volume measurements are shown in (FIG. 31D). n=8-16 (FIG. 31B), 7-8 (FIG. 31C). (FIG. 31E-FIG. 31F) Tumor growth by DTIC-sensitive MeWo parental cells and in vivo-derived DTIC-resistant MeWo human melanoma cells in response to DTIC or GW3965 treatments. 5×10^5 cells were subcutaneously injected into NOD Scid gamma mice. After formation of tumors measuring 5-10 mm3 in volume, mice were blindedly assigned to a control treatment, a DTIC treatment (50 mg/kg, i.p., administered daily in 5-day cycles with 2-day off-treatment intervals), or a GW3965-supplemented diet treatment (100 mg/kg). Final day tumor measurements are show in (FIG. 31F). n=6-8. […]",
  "data": [
    {"smiles": "CN(C)/N=N/c1[nH]cnc1C(N)=O", "note": "[dacarbazine]", "values": [
      {"measurement": "increase in viability of DTIC-resistant cells compared to parental B16F10", "value": 7, "unit": "fold"}
    ]}
  ]
}
